What was measured:
[1] = molecular target: T1, recombinant human Caspase-1 (Homo sapiens, UniProt P29466); experiment: Caspase-1 inhibitory activity, fluorescent substrate Ac-YVAD-AFC; type: biochemical; conditions: pH 8; 1 unit recombinant human Caspase-1, 50 μM Ac-YVAD-AFC; read-out: kobs/[I] Caspase-1
T1 construct: purchased Enzo life science
T1 sequence (P29466 120-297 limits assumed): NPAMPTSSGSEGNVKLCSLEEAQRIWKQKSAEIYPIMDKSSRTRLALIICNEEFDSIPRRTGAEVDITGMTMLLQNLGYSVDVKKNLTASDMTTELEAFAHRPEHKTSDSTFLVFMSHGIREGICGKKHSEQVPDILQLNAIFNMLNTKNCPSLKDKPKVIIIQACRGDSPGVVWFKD
T1 sequence (P29466 317-404 limits assumed): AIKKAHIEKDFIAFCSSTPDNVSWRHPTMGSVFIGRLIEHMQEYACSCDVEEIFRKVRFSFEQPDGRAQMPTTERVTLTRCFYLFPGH
Summary of the method: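 Inactivation kinetics with 1 unit enzyme and 50 μM Ac-YVAD-AFC in 50 mM HEPES pH 8.0, 50 mM KCl, 200 mM NaCl, 10 mM DTT, 0.1% CHAPS, at various compound concentrations. Rate followed over time at Ex/Em 400/505 nm. kobs/[I] binned: A ≥20, B 10–<20, C 1–<10, D <1.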

[2] = tested on: Secreted IL-1β in THP-1 cells; experiment: Interleukin-1β inhibitory activity in human monocytic cells THP-1 (ELISA); type: cell-based; conditions: compound 100 nM, PMA-differentiated THP-1, LPS 10 μg/ml then 5 mM ATP, 24 h
Summary of the method: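 THP-1 cells were differentiated with 1 μM PMA for 24 h, primed with 10 μg/ml LPS in serum-free medium for 24 h, then given compound at 100 nM for 1 h before 5 mM ATP for 24 h. Secreted IL-1β was measured by ELISA, and inhibition was binned a ≥50%, b 30–<50%, c 10–<30%, d <10%.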

Jurkat cells = experiment: Apoptosis inhibition activity in human T-lymphocyte cells Jurkat (anti-FAS antibody, intracellular ATP); type: cell-based; conditions: compound 50 nM, 1 μg/ml anti-FAS antibody 24 h, ATP luminescence
Description: To evaluate the effect of the compound of the present invention on apoptosis, Jurkat (ATCC) cells were treated with anti-FAS antibody CH-11 (Merck) to induce apoptosis via the Fas (CD95) receptor, which was assessed by the amount of intracellular ATP.
Jurkat cells were cultured in RPMI 1640 growth medium comprising 10% FBS and antibiotics (100 U/ml Penicillin, 0.1 mg/ml Streptomycin) under 37° C., 5% CO2 conditions. Cultured cells were seeded in growth medium to a concentration of 8×10^4 cells/well in 96-well plates (SPL), pretreated with compound at a concentration of 50 nM for 1 hour, and then treated with 1 μg/ml anti-FAS antibody for 24 hours in an incubator. After 24 h, an ATP lite Luminescence assay kit (PerkinElmer) was used to measure ATP and luminescence was measured at 580 nm using a CLARIOstar Plus spectrometer. If the inhibitory activity is 30% or more, it is denoted as a′, if it is 20% or more but less than 30%, it is denoted as b′, if it is 10% or more but less than 20%, it is denoted as c′, and if it is less than 10%, it is denoted as d′.

SMILES	kinact/KI [1] [M⁻¹ s⁻¹]	inhibition at 0.1 µM [2] [%]	inhibition at 0.05 µM (Jurkat cells) [%]
CCC(C(=O)NC(CC(=O)O)C(=O)CF)N1Cc2ccc(-c3ccc4c(c3)OCCO4)cc2C1=O (stereo not drawn) [Compound 27, 3-(2-(6-(2,3-dihydrobenzo[b][1,4]dioxin-6-yl)-1-oxoisoindolin-2-yl)butanamido)-5-fluoro-4-oxopentanoic acid]	0.0167 to 0.167	10 to 30	≥ 30
CC[C@@H](C(=O)N[C@@H](CC(=O)O)C(=O)COc1c(F)c(F)cc(F)c1F)N1Cc2ccc(-c3coc4ccccc34)cc2C1=O [Compound 50, (S)-3-((S)-2-(6-(benzofuran-3-yl)-1-oxoisoindolin-2-yl)butanamido)-4-oxo-5-(2,3,5,6-tetrafluorophenoxy)pentanoic acid]	0.167 to 0.333	≥ 50	≥ 30
CCC(C(=O)NC(CC(=O)O)C(=O)CF)N1Cc2ccc(N3CCCC3)cc2C1=O (stereo not drawn) [Compound 3, 5-fluoro-4-oxo-3-(2-(1-oxo-6-(pyrrolidin-1-yl)isoindolin-2-yl)butanamido)pentanoic acid]	0.0167 to 0.167	30 to 50	20 to 30
